# Assay results reported in patent US4968455A, “Tris(triorganotin) esters of trimeric fatty acids” (Schering Aktiengesellschaft, priority 1984, dated 1990).
# Experiments:
# Bacillus mesentericus = assay: Overlay test, zones of inhibition, Bacillus mesentericus; type: cell-based; settings: two days at 37° C.
# [1] = Water solubility in tap water (one week stirring, chloroform extraction, tin by atomic absorption spectroscopy); type: physicochemical; settings: products of Examples 1 and 2 based on 100%, 10080 min
# Method: 1 g of the substance to be tested was mixed in a beaker with 1 liter of tap water by stirring for one week. After settling and decanting, the organotin compounds dissolved in the water were extracted with chloroform. The tin concentrations were determined by atomic absorption spectroscopy.
# Bacillus subtilis = assay: Overlay test, zones of inhibition, Bacillus subtilis; type: cell-based; settings: two days at 37° C.
# [2] = Thermal stability, one hour treatment at 180° C. in open glass vessels; type: physicochemical; settings: tributyltin content not determinable
# Method: After prior methylation, the content of tributyltin compounds after a one hour treatment at 180° C. in open glass vessels was determined by gas chromatography.
# Proteus vulgaris = assay: Overlay test, zones of inhibition, Proteus vulgaris; type: cell-based; settings: two days at 37° C.
# [3] = Evaporation behavior: thermobalance tests; type: physicochemical; settings: products of Examples 1 and 2 based on 100%
# Method: (§1) Weight losses were determined after one week storage in a circulating-air dryer at 65° C. and tests with a thermobalance (onset of weight loss, and weight loss at 350° C.) were performed.
# (§2) The exact initial weight of the specimens (about 2 g) in glass Petri dishes (about 10 cm in diameter) is determined and the weight loss after treatment is determined by reweighing.
# [4] = Evaporation behavior: weight loss after one week storage in a circulating-air dryer at 65° C.; type: physicochemical; settings: products of Examples 1 and 2 based on 100%
# Method: as §1, §2
# [5] = 0.10 wt. % tin (impregnating solution: TBTO 0.25; TBTL, TBTN 0.5; Ex. 1 1.0; Ex. 2 1.1 wt. %)
# [6] = 0.16 wt. % tin (impregnating solution: TBTO 0.4; TBTL, TBTN 0.8; Ex. 1 1.65; Ex. 2 1.7 wt. %)
# [7] = 0.24 wt. % tin (impregnating solution: TBTO 0.6; TBTL, TBTN 1.2; Ex. 1 2.45; Ex. 2 2.6 wt. %)
# [8] = 0.40 wt. % tin (impregnating solution: TBTO 1.0; TBTL, TBTN 2.0; Ex. 1 4.1; Ex. 2 4.3 wt. %)
structure (smiles),measurement,setting,value
"CCC[CH2][Sn]([CH2]CCC)([CH2]CCC)[O][Sn]([CH2]CCC)([CH2]CCC)[CH2]CCC [TBTO, tri-n-butyltin oxide]","Zones of inhibition about the specimens, Bacillus mesentericus",Bacillus mesentericus; [5],5 cm^2
same,"Zones of inhibition about the specimens, Bacillus mesentericus",Bacillus mesentericus; [6],8 cm^2
same,"Zones of inhibition about the specimens, Bacillus mesentericus",Bacillus mesentericus; [7],14 cm^2
same,"Zones of inhibition about the specimens, Bacillus mesentericus",Bacillus mesentericus; [8],20 cm^2
same,Water solubility,[1],24.0 mg/liter of water
same,"Zones of inhibition about the specimens, Bacillus subtilis",Bacillus subtilis; [5],6 cm^2
same,"Zones of inhibition about the specimens, Bacillus subtilis",Bacillus subtilis; [6],13 cm^2
same,"Zones of inhibition about the specimens, Bacillus subtilis",Bacillus subtilis; [7],18 cm^2
same,"Zones of inhibition about the specimens, Bacillus subtilis",Bacillus subtilis; [8],20 cm^2
same,weight loss (1 hour at 180° C.),[2],98%
same,"Zones of inhibition about the specimens, Proteus vulgaris",Proteus vulgaris; [5],3 cm^2
same,"Zones of inhibition about the specimens, Proteus vulgaris",Proteus vulgaris; [6],6 cm^2
same,"Zones of inhibition about the specimens, Proteus vulgaris",Proteus vulgaris; [7],9 cm^2
same,"Zones of inhibition about the specimens, Proteus vulgaris",Proteus vulgaris; [8],12 cm^2
same,Thermobalance: Weight loss at 350° C.,[3]; 350° C.,80%
same,Thermobalance: Onset of weight loss,[3],75 °C
same,Weight loss after 7 days at 65° C.,[4],27.3%
